Values joined by “and” are separate entries in the source; they are usually repeats but may differ in a detail not shown here. Identical values can stand only once.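 Values below derive from 48-hour exposures of cells grown in 96-well plates, with endpoints linearly interpolated between the two concentrations bracketing the appropriate inhibition level. Here, GI50 denotes the concentration required for 50% inhibition of growth. Definition used: TGI = concentration required for complete inhibition of growth.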
Assays:
Assay in all cases: growth of human tumour cells (NCI), 48 h
HCT-15 colon = system: HCT-15 colon
HS 578T breast = system: HS 578T breast
MOLT-4 leukemia = system: MOLT-4 leukemia
NCI-H23 lung = system: NCI-H23 lung
NCI/ADR-RES ovarian = system: NCI/ADR-RES ovarian
OVCAR-5 ovarian = system: OVCAR-5 ovarian
OVCAR-8 ovarian = system: OVCAR-8 ovarian
SF-539 CNS = system: SF-539 CNS
SK-MEL-2 melanoma = system: SK-MEL-2 melanoma
SNB-75 CNS = system: SNB-75 CNS

| SMILES | GI50 (HCT-15 colon) [µM] | TGI (HCT-15 colon) [µM] | GI50 (HS 578T breast) [µM] | TGI (HS 578T breast) [µM] | GI50 (MOLT-4 leukemia) [µM] | TGI (MOLT-4 leukemia) [µM] | GI50 (NCI-H23 lung) [µM] | TGI (NCI-H23 lung) [µM] | GI50 (NCI/ADR-RES ovarian) [µM] | TGI (NCI/ADR-RES ovarian) [µM] | GI50 (OVCAR-5 ovarian) [µM] | TGI (OVCAR-5 ovarian) [µM] | GI50 (OVCAR-8 ovarian) [µM] | TGI (OVCAR-8 ovarian) [µM] | GI50 (SF-539 CNS) [µM] | TGI (SF-539 CNS) [µM] | GI50 (SK-MEL-2 melanoma) | TGI (SK-MEL-2 melanoma) [µM] | GI50 (SNB-75 CNS) [µM] | TGI (SNB-75 CNS) [µM] |
| --- | --- | --- | --- | --- | --- | --- | --- | --- | --- | --- | --- | --- | --- | --- | --- | --- | --- | --- | --- | --- |
| COc1ccc2c(c1)C(=O)/C(=C/c1ncc([N+](=O)[O-])n1C)O2 | 0.221 | 0.629 | 0.74 | 10.9 | 0.161 | 0.562 | 1.02 | 4.76 | 0.391 | 6.47 | 1.75 | 5.67 | 0.261 | 2.81 | 1.55 | 3.41 | 0.361 µM | 1.61 | 1.12 | 2.63 |
| O=c1[nH]cnc2[nH]ncc12 | 143 | > 5000 | 2540 | > 5000 | 972 | > 5000 | 227 | > 1870 | 214 | > 1250 | 486 | > 1550 | 214 | > 5000 | 2010 | > 5000 | > 36.5 µM and 257 µM | > 5000 | 1180 | > 4110 |
| COc1cc(-c2nc3sc4c(c3c(=O)[nH]2)CCCCCC4)cc(OC)c1OC | 0.649 | > 33.2 | 0.922 | 9.76 | 1.86 | > 33.2 | 1.43 | > 33.2 | 0.892 | > 33.2 | 2.23 | > 33.2 | 1.52 | > 33.2 | 0.673 | 2.08 | 1.11 µM | 7.5 | 0.701 | 2.52 |
| COc1cc(/C=C2\CN(C)C/C(=C\c3cc(CN4CCCCC4)c(O)c(OC)c3)C2=O)cc(CN2CCCCC2)c1O | 3.29 | 12.7 | 3.27 | 80.6 | 2.95 | 10.7 | 5.11 | 21.4 | 6.24 | > 100 | 2.29 | 5.81 | 3.12 | > 100 | 2.75 | 8.17 | 3.53 µM | 13.2 | 1.99 | 9.13 |
| COC(=O)C1(F)C(=O)NC(=O)NC1O (centres undefined) | – | > 100 | – | > 100 | – | > 100 | – | > 100 | – | > 100 | – | > 100 | – | > 100 | – | > 100 | – | > 100 | – | > 100 |
| Cc1c(C)[n+](=O)c(C)c(C)n1[O-] | > 100 | > 100 | > 100 | > 100 | > 100 | > 100 | > 100 | > 100 | > 100 | > 100 | > 100 | > 100 | > 100 | > 100 | > 100 | > 100 | – | – | 79.8 | > 100 |
| COc1ccc(/C=C/C(=O)Oc2cc(O)cc(O)c2)cc1 | – | 65.9 | – | – | – | 30.7 | – | > 100 | – | > 100 | – | > 100 | – | > 100 | – | > 100 | – | > 100 | – | > 100 |
| COc1ccc(-c2ccc(-c3ccc(-c4ccc(C(=N)N)cc4)s3)s2)cc1OC | – | – | 21.2 | 48.1 | 2.51 | 6.6 | 2.43 | 6.26 | 2.51 | 6.54 | 1.44 | 3.6 | 3.76 | > 100 | 15.4 | 38.7 | 19.7 µM | 43.5 | 14.4 | 31 |
| C/C(=N\N=C(/[Se])N1CC2CCC(CC2)C1)c1ccccn1 | – | 2.06 | – | 7.77 | – | 1.16 | – | 1.57 | – | – | – | 2.51 | – | 2.34 | – | 1.2 | – | 0.716 | – | 1.11 |
| CN1CCN(Cc2ccc(NC(=O)c3ccc(C#Cc4c(N)ncc5ccc(F)cc45)cc3)cc2C(F)(F)F)CC1 | 0.892 | 1.74 | 1.05 | 3.65 | 0.799 | 1.74 | 0.968 | 1.89 | 1.08 | 2.32 | 0.993 | 1.85 | 0.955 | 1.81 | – | 1.78 | 1.08 µM | 2.04 | – | – |
| COc1ccc(C(=O)c2cc3c(OC)c(OC)c(OC)cc3[nH]2)cc1 | 2.23 | > 100 | 4.25 | > 100 | 3.51 | > 100 | 6.25 | > 100 | 3.2 | 40.9 | 66.9 | > 100 | 33.7 | > 100 | 4.76 | > 100 | – | – | 6.84 | 28.5 |
| COc1cccc2c1C(=O)c1c(O)c3c(c(O)c1C2=O)C[C@@](O)(C(=O)CO)C[C@@H]3OC1C[C@H](N)[C@H](O)[C@H](C)O1 (some centres undefined) | 0.906 | > 50 | 0.132 | – | – | 0.105 | 0.0484 | 0.234 | – | – | 0.214 | 14.5 | 0.067 | > 16.2 | 0.0387 | 0.528 | 0.141 µM | 5.47 | 0.034 | 0.147 |
| S=C1Nc2ccc(Cl)cc2C2(c3ccccc3)N3CCN=C3NN12 (centres undefined) | 34 | > 100 | – | – | 22.8 | 61.6 | > 100 | > 100 | 48.8 | > 100 | 82.7 | > 100 | 52.3 | > 100 | 36.7 | > 100 | – | – | 17.6 | > 100 |
| c1cn2cc(-c3ccc4cn[nH]c4c3)nc(Nc3ccc(N4CCOCC4)cc3)c2n1 | 11.7 | 41.1 | 11.1 | 63.8 | 96.9 | > 100 | 15.2 | 55 | 11.1 | 32.4 | – | – | 4.87 | 21.8 | 6.54 | 23.1 | 36.1 µM | > 100 | 1.46 | 13.3 |
| CCN1c2ccccc2C(Cl)(c2ccc(N(C)C)cc2)c2ccccc21 | 11.9 | 49.4 | 4.89 | 27.3 | 3.27 | 15.2 | 3.04 | 14.4 | 13.3 | 44.6 | 17.7 | 34.9 | – | – | 15.5 | 29.2 | – | – | 5.16 | 18.2 |
| COc1ccc(-n2c3c(c4c(CN5CCOCC5)c(O)ccc42)CCc2ccccc2C3=O)cc1 | > 100 | > 100 | > 100 | > 100 | 45.9 | > 100 | 24.9 | > 100 | 25 | 88.9 | 34.8 | > 100 | 64.4 | > 100 | 61 | > 100 | > 100 µM | > 100 | – | – |
| CSc1ccc2c3c(n(C[C@H](O)CO)c(=O)c2c1)-c1ccccc1C3=O | – | – | 15.8 | 78.8 | 0.368 | 2.33 | 2.95 | 12.7 | 4.44 | 49.9 | 3.1 | 10.6 | 2.21 | 20.9 | 2.36 | 7.37 | 16.6 µM | 60.8 | 12.5 | > 100 |
| COc1ccc(/C=C\c2cc(OC)c(OC)c(OC)c2)cc1OC(=O)CCC(=O)O | – | > 100 | – | > 100 | – | – | – | > 100 | – | – | – | – | – | 69.6 | – | – | – | > 100 | – | > 100 |
| O=c1cc(-c2ccccc2)[nH]n1-c1nc2ccccc2[nH]1 | 3.44 | > 100 | 7.47 | > 100 | – | – | 9.69 | > 100 | 3.68 | > 100 | 12.5 | > 100 | 4.5 | > 100 | 3.94 | 27.1 | 9.32 µM | 66.8 | 4.66 | > 100 |
| Nc1c(C(=O)Nc2ccccc2)[n+]([O-])c2ccccc2[n+]1[O-] | – | 28.2 | – | – | – | > 100 | – | 28.8 | – | – | – | 37.5 | – | > 100 | – | 37.3 | – | 33.5 | – | 34 |
| Cc1ccc(-c2cc(C3=CC(=O)C=CC3=O)n(-c3ccc(S(N)(=O)=O)cc3)n2)cc1 | 58.2 | > 100 | 64.8 | > 100 | 9.06 | > 100 | 32.9 | > 100 | – | – | 35.9 | > 100 | 88.7 | > 100 | – | – | > 100 µM | > 100 | – | – |
| Cc1cc(=O)oc2cc(OCc3c(F)cccc3Cl)ccc12 | – | – | – | 99.1 | – | – | – | > 100 | – | – | – | > 100 | – | > 100 | – | 48.7 | – | > 100 | – | 34.1 |

Reference: PubChem BioAssay (NCI)
